Data as given in patent US12227520B2 (priority 2019, dated 2025).
Where two headings read alike, the source gives them in different places.

Key:
[1] = test system: uninfected MT-4 cells; test: Cytotoxicity assay in MT-4 cells; assay type: cell-based, human; conditions: uninfected MT-4 cells, 5 days incubation
Procedure, shortened: (§1)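 For cytotoxicity, uninfected MT-4 cells were incubated with compounds 5 days at 37 °C, with 10 μM puromycin marking base cytotoxicity. Parallel plates used HIV-1 IIIB-infected (1:250 stock dilution) or mock cells with 5 μM AZT and no-drug controls. Read-out: CellTiter-Glo chemiluminescence.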

[2] = test system: HIV-1 (IIIB); test: Antiviral assay in MT-4 cells (HIV MT-4 antiviral assay); assay type: cell-based; conditions: HIV-1 (IIIB) in MT-4 cells, 5 days incubation
Procedure, shortened: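 Read-out is CellTiter-Glo chemiluminescence after 5-day culture at 37° C, giving protection of MT-4 cells from HIV-1 IIIB cytopathicity. Compounds tested in 1:3 dilution series in complete RPMI; controls were no drug, mock infection and 5 μM AZT.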

[3] = test system: pLai RLuc reporter virus; test: microbe, parasite or virus in culture; assay type: cell-based, HIV
Procedure, shortened: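 Read-out is Renilla luciferase after 72 h at 37 °C in MT-4 cells infected 2 h beforehand with pLai RLuc reporter virus; compounds diluted 1:3.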

[4] = Cytotoxicity assay in MT-4 cells; assay type: cell-based, human; conditions: human, uninfected MT-4 cells, 5 days incubation; read-out: CC50
Procedure, shortened: as §1

[5] = read-out: Antiviral Serum Shift RLuc 50% HS, HS/CCM (RPMI media, 10% FBS, 50% HS, 1% P/S), 72-h incubation
[6] = read-out: Antiviral Serum Shift RLuc CCM, CCM (RPMI media, 10% FBS, 1% P/S), 72-h incubation
[7] = Human immunodeficiency virus 1, 72 h, read-out: Antiviral Serum Shift RLuc CCM, CCM (RPMI media, 10% FBS, 1% P/S), 72-h incubation
[8] = Human immunodeficiency virus 1, 72 h, read-out: Antiviral Serum Shift RLuc 50% HS, HS/CCM (RPMI media, 10% FBS, 50% HS, 1% P/S), 72-h incubation
[9] = Human immunodeficiency virus 1, IIIB, MT4, 120 h, read-out: EC50

| Compound | CC50 [1] [nM] | EC50 ([2]; read-out: EC50) [nM] | EC50 [3, 7] [nM] | EC50 [3, 8] [nM] | CC50 at 5 days [4] [nM] | EC50 [2, 9] [nM] | other results |
| --- | --- | --- | --- | --- | --- | --- | --- |
| CC[C@]12CCCCN(C1)C(=O)c1c(O)c(=O)c(C(=O)NCc3ccc(F)cc3F)cn12 [Example 134-1, (7S)—N-(2,4-difluorobenzyl)-7-ethyl-12-hydroxy-1,11-dioxo-1,4,5,6,7,11-hexahydro-3H-27-methanopyrido[1,2-a][1,4]diazonine-10-carboxamide] | 16200 | 3.29 | – | – | – | – | – |
| CC1CCCN2CC1n1cc(C(=O)NCc3ccc(F)cc3F)c(=O)c(O)c1C2=O (stereo not drawn) [Example 17-2b, N-(2,4-difluorobenzyl)-12-hydroxy-6-methyl-1,11-dioxo-1,4,5,6,7,11-hexahydro-3H-2,7-methanopyrido[1,2-a][1,4]diazonine-10-carboxamide] | 11000 | 1.2 | – | – | – | – | EC50 [3, 5]: 101 nM; EC50 [3, 6]: 0.31 nM |
| O=C(NCc1c(F)cc(F)cc1F)c1cn2c(c(O)c1=O)C(=O)N1CC2CCc2ccccc21 (single isomer, unassigned) [Example 38-2] | 12800 | 0.93 | – | – | – | – | – |
| O=C(NCc1ccc(F)cc1F)c1cn2c(c(O)c1=O)C(=O)N1C[C@@H]2CCC[C@@H]1CF [Example 181, (3R,7S)—N-(2,4-difluorobenzyl)-3-(fluoromethyl)-12-hydroxy-1,11-dioxo-1,4,5,6,7,11-hexahydro-3H-2,7-methanopyrido[1,2-a][1,4]diazonine-10-carboxamide] | 9710 | 1.08 | – | – | – | – | EC50 [3, 5]: 7.65 nM; EC50 [3, 6]: 0.385 nM |
| O=C(NCc1ccc(F)cc1F)c1cn2c(c(O)c1=O)C(=O)N1C[C@H](F)CC[C@H]2C1 (single isomer, unassigned) [Example 53-1] | 13200 | 2.13 | 0.541 | – | – | – | EC50 [3, 5]: 6.13 nM |
| O=C(NCc1c(F)cc(F)cc1F)c1cn2c(c(O)c1=O)C(=O)N1CCCC(CF)C2C1 (single isomer, unassigned) [Example 194-3, 6-(fluoromethyl)-12-hydroxy-1,11-dioxo-N-(2,4,6-trifluorobenzyl)-1,4,5,6,7,11-hexahydro-3H-2,7-methanopyrido[1,2-a][1,4]diazonine-10-carboxamide] | 11500 | 1.28 | – | – | – | – | EC50 [3, 5]: 139 nM; EC50 [3, 6]: 0.554 nM |
| (3S,7S)-5-fluoro-12-hydroxy-3-methyl-1,11-dioxo-N-(2,4,6-trifluorobenzyl)-1,4,7,11-tetrahydro-3H-2,7-methanopyrido[1,2-a][1,4]diazonine-10-carboxamide [Example 118-1] | 11500 | 0.79 | – | – | – | – | EC50 ([3]; CCM (RPMI media, 10% FBS, 1% P/S), 72-h incubation, read-out: Antiviral Serum Shift RLuc CCM): 0.296 nM; EC50 ([3]; HS/CCM (RPMI media, 10% FBS, 50% HS, 1% P/S), 72-h incubation, read-out: Antiviral Serum Shift RLuc 50% HS): 0.881 nM |
| O=C(NCc1ccc(F)cc1F)c1cn2c(c(O)c1=O)C(=O)N1CC2CCc2cc(F)c(F)cc21 (single isomer, unassigned) [Example 50-1] | > 13500 | – | 0.265 | 0.948 | – | – | EC50 [2]: 1.39 nM |
| CC[C@@]12CCCCN(C1)C(=O)c1c(O)c(=O)c(C(=O)NCc3ccc(F)cc3F)cn12 [Example 134-2, (7R)—N-(2,4-difluorobenzyl)-7-ethyl-12-hydroxy-1,11-dioxo-1,4,5,6,7,11-hexahydro-3H-27-methanopyrido[1,2-a][1,4]diazonine-10-carboxamide] | 10600 | 5.7 | – | – | – | – | – |
| O=C(NCc1ccc(F)cc1F)c1cn2c(c(O)c1=O)C(=O)N1CC2CCc2cc(F)c(F)cc21 (single isomer, unassigned) [Example 50-2] | 32300 | – | – | – | – | – | EC50 [2]: 32.5 nM |
| (7R,13R)—N-(2,4-difluorobenzyl)-12-hydroxy-13-methyl-1,11-dioxo-1,4,5,6,7,11-hexahydro-3H-2,7-methanopyrido[1,2-a][1,4]diazonine-10-carboxamide [Example 7] | 25400 | 19.9 | – | – | – | – | – |
| CC1=CC[C@H]2CN(C(=O)c3c(O)c(=O)c(C(=O)NCc4c(F)cc(F)cc4F)cn32)[C@H]1C [Example 144-2, (3S,7S)-12-hydroxy-3,4-dimethyl-1,11-dioxo-N-(2,4,6-trifluorobenzyl)-1,6,7,11-tetrahydro-3H-2,7-methanopyrido[1,2-a][1,4]diazonine-10-carboxamide] | – | – | 0.469 | 4.46 | 13900 | 1.98 | – |
| O=C(NCc1ccc(F)cc1F)c1cn2c(c(O)c1=O)C(=O)N1CC/C=C\C[C@H]2C1 [Example 44-2, (8S,Z)—N-(2,4-difluorobenzyl)-13-hydroxy-1,12-dioxo-1,3,4,7,8,12-hexahydro-2,8-methanopyrido[1,2-a][1,4]diazecine-11-carboxamide] | – | – | 0.264 | 36.8 | 15100 | 2.36 | – |
| O=C1CC[C@H]2CN(C1)C(=O)c1c(O)c(=O)c(C(=O)NCc3c(F)cc(F)cc3F)cn12 [Example 78, (7S)-12-hydroxy-1,4,11-trioxo-N-(2,4,6-trifluorobenzyl)-1,4,5,6,7,11-hexahydro-3H-2,7-methanopyrido[1,2-a][1,4]diazonine-10-carboxamide] | – | – | 1.93 | 3.76 | > 50000 | 9.56 | – |
| C[C@@H]1C=C[C@H](C)N2C[C@H]1n1cc(C(=O)NCc3c(F)cc(F)cc3F)c(=O)c(O)c1C2=O [Example 176, (3S,6R,7S)-12-hydroxy-3,6-dimethyl-1,11-dioxo-N-(2,4,6-trifluorobenzyl)-1,6,7,11-tetrahydro-3H-2,7-methanopyrido[1,2-a][1,4]diazonine-10-carboxamide] | – | – | 0.263 | 16.7 | 7770 | 0.829 | – |
| C[C@]12CN(CCc3cc(F)c(F)cc31)C(=O)c1c(O)c(=O)c(C(=O)NCc3c(F)cc(F)cc3F)cn12 (single isomer, unassigned) [Example 120-2] | – | – | 14 | 239 | 11100 | > 59.4 | – |
| C[C@H]1CC[C@H]2CN(C(=O)c3c(O)c(=O)c(C(=O)NCc4c(F)cc(F)cc4F)cn32)[C@H]1C [Example 108-2, (3S,4S,7S)-12-hydroxy-3,4-dimethyl-1,11-dioxo-N-(2,4,6-trifluorobenzyl)-1,4,5,6,7,11-hexahydro-3H-2,7-methanopyrido[1,2-a][1,4]diazonine-10-carboxamide] | – | – | 0.335 | 1.55 | 11800 | 0.917 | – |
| O=C(NCc1ccc(F)cc1F)c1cn2c(c(O)c1=O)C(=O)N1CC[C@H](F)C[C@H]2C1 [Example 56-1, (5S, 7S)—N-(2,4-difluorobenzyl)-5-fluoro-12-hydroxy-1,11-dioxo-1,4,5,6,7,11-hexahydro-3H-2,7-methanopyrido[1,2-a][1,4]diazonine-10-carboxamide] | – | – | 0.967 | 1.91 | > 39400 | 3.99 | – |
| O=C(NCc1c(F)cc(F)cc1F)c1cn2c(c(O)c1=O)C(=O)N1CCN(C(F)(F)F)CC2C1 (stereo not drawn) [Example 141, 12-hydroxy-1,11-dioxo-N-(2,4,6-trifluorobenzyl)-5-(trifluoromethyl)-1,4,5,6,7,11-hexahydro-3H-2,7-methanopyrido[1,2-a][1,4,7]triazonine-10-carboxamide] | – | – | 29.6 | 199 | > 50000 | > 100 | – |
| C[C@@H]1C=C[C@H](CF)N2C[C@H]1n1cc(C(=O)NCc3ccc(F)cc3F)c(=O)c(O)c1C2=O [Example 192, (3R,6R,7S)—N-(2,4-difluorobenzyl)-3-(fluoromethyl)-12-hydroxy-6-methyl-1,11-dioxo-1,6,7,11-tetrahydro-3H-2,7-methanopyrido[1,2-a][1,4]diazonine-10-carboxamide] | – | – | 0.252 | 6.57 | 5570 | 0.913 | – |
| O=C(NCc1ccc(F)cc1F)c1cn2c(c(O)c1=O)C(=O)N1CC[C@H](F)C[C@@H]2C1 [Example 56-3, (5S, 7R)—N-(2,4-difluorobenzyl)-5-fluoro-12-hydroxy-1,11-dioxo-1,4,5,6,7,11-hexahydro-3H-2,7-methanopyrido[1,2-a][1,4]diazonine-10-carboxamide] | – | – | 0.312 | 13.3 | 16100 | 5.24 | – |
| C[C@]1(F)CCN2C[C@H](C1)n1cc(C(=O)NCc3c(F)cc(F)cc3F)c(=O)c(O)c1C2=O [Example 115-1, (5S,7S)-5-fluoro-12-hydroxy-5-methyl-1,11-dioxo-N-(2,4,6-trifluorobenzyl)-1,4,5,6,7,11-hexahydro-3H-2,7-methanopyrido[1,2-a][1,4]diazonine-10-carboxamide] | – | – | 0.271 | 0.713 | 12200 | 1.48 | – |
